Assay results published in patent US20110201620A1, “2-(3-AMINOARYL) AMINO-4-ARYL-THIAZOLES AND THEIR USE AS C-KIT INHIBITORS” (AB SCIENCE, priority 2002, published 2011).

Tests used:
[1] = Phase 2 clinical trial in advanced GIST, safety assessment; type: in vivo, human
Description: Methods; Patients: Patients enrolled in this study were aged over 18 years with inoperable, non-pretreated, histologically proven locally advanced or metastatic, c-Kit positive GIST. […] Exclusion criteria included: inadequate organ function defined via blood tests, severe liver or cardiac failure, and severe neurological or psychiatric disorders. Patients receiving a concomitant treatment within 4 weeks before inclusion, and pregnant or lactating women were also excluded. […] All adverse events (AEs), including abnormal serology or haematology, were recorded regardless of causality.

[2] = test system: imatinib-resistant HMC-1 α155 cells; assay: Apoptosis assay by propidium iodide staining; type: cell-based, human; conditions: 1 μM
Method: HMC-1 is a human mast cell line derived from a patient with mast cell leukaemia. The cell line used in this study, HMC-1 α155, is a clone derived from the original population expressing endogenous Kit bearing the mutation Val 560 to Gly. […] The medium used in this case was a RPMI medium containing L-glutamine (Cambrex cat# 12-702F) supplemented with 100 U/mL penicillin and 100 μg/mL streptomycin (Cambrex 100X penicilline/streptomycine mixture cat #17-602E), and with 10% v/v foetal calf serum (AbCys Lot S02823S1800) which has been previously heat-inactivated 30 minutes at 56° C. (RPMI 10). The medium containing the drugs was replaced with fresh one every 3-4 days. […] The principle behind the method for apoptosis assay by Propidium Iodide Staining (PI staining) is as follows: during apoptosis, DNA breakup causes small fragments of DNA to be free in the nucleus. Following appropriate elution with citrate buffer, these fragments are lost from the nucleus. As these cells now have a lower DNA content, subsequent staining with a DNA binding dye will reveal these cells in the sub-G1 region.
The % apoptosis represents the percentage of cells in apoptose with respect to overall cells.

Solubility = type: physicochemical
Method: For detailed procedure refer to patent WO/2008/098949. AB1010 is also manufactured by AB Science, S.A. (France), or by Prestwick Chemical, Inc. (France). The chemical structure was confirmed by nuclear magnetic resonance, mass spectrometry, ultraviolet and infrared spectrometry, and elemental analysis. […] The compound, a white powder, was prepared according to the art to provide tablets. Tablet containing masitinib was used for each experiment.

[3] = N = 30, Suspected: treatment related or not assessable

## Cc1ccc(NC(=O)c2ccc(CN3CCN(C)CC3)cc2)cc1Nc1nc(-c2cccnc2)cs1 [Compound 066, 4-(4-methyl-piperazin-1-ylmethyl)-N-[4-methyl-3-(4-pyridin-3-yl-thiazol-2-ylamino)-phenyl]-benzamide]
[1]; 1/30 patient
  patients reporting one grade 4 AE (skin exfoliation): 3.3%
  patients with treatment interruption for treatment-related haematological toxicity: 3%
[1]; 3/30 patients
  patients with grade 3 treatment-related rash: 10%
[1]; 8/30 patients
  patients experiencing serious adverse events (SAE): 27%
[1]; 13/30 patients
  patients with treatment interruption for non-haematological AEs: 43%
[1]; 14/30 patients
  patients with at least one grade 3 treatment-related AE: 47%
[1]; 16/30 patients
  patients with treatment interruption for more than 8 days: 53.3%
[1]; 21/30 patients
  patients with treatment-related oedemas (all types): 70%
[1]; ITT population
  patients reporting at least one treatment-related AE: All patients
  treatment-related toxicity per patient: abdominal pain: 33%
  treatment-related toxicity per patient: asthenia: 83%
  treatment-related toxicity per patient: cutaneous rash: 40%
  treatment-related toxicity per patient: diarrhoea: 57%
  treatment-related toxicity per patient: eye oedema: 47%
  treatment-related toxicity per patient: muscle spasms: 40%
  treatment-related toxicity per patient: nausea: 47%
  treatment-related toxicity per patient: peripheral oedema: 20%
  treatment-related toxicity per patient: pruritus: 33%
  treatment-related toxicity per patient: upper abdominal pain: 23%
  treatment-related toxicity per patient: vomiting: 23%
[1]; N = 30
  Abdominal Pain Upper, All causalities, All grades: 9 (30.0%) Number (%) of patients
  Abdominal Pain, All causalities, All grades: 16 (53.3%) Number (%) of patients
  Abdominal Pain, All causalities, G3 + G4: 2 (6.7%) Number (%) of patients
  Anaemia, All causalities, All grades: 6 (20.0%) Number (%) of patients
  Anaemia, All causalities, G3 + G4: 1 (3.3%) Number (%) of patients
  Asthenia, All causalities, All grades: 27 (90.0%) Number (%) of patients
  Asthenia, All causalities, G3 + G4: 1 (3.3%) Number (%) of patients
  Diarrhoea, All causalities, All grades: 18 (60.0%) Number (%) of patients
  Diarrhoea, All causalities, G3 + G4: 1 (3.3%) Number (%) of patients
  Dry Skin, All causalities, All grades: 4 (13.3%) Number (%) of patients
  Erythema, All causalities, All grades: 6 (20.0%) Number (%) of patients
  Eye Oedema, All causalities, All grades: 14 (46.7%) Number (%) of patients
  Eye Oedema, All causalities, G3 + G4: 1 (3.3%) Number (%) of patients
  Eyelid Oedema, All causalities, All grades: 7 (23.3%) Number (%) of patients
  Lacrimation Increased, All causalities, All grades: 4 (13.3%) Number (%) of patients
  Mucosal Inflammation, All causalities, All grades: 5 (16.7%) Number (%) of patients
  Mucosal Inflammation, All causalities, G3 + G4: 1 (3.3%) Number (%) of patients
  Muscle Spasms, All causalities, All grades: 12 (40.0%) Number (%) of patients
  Myalgia, All causalities, All grades: 4 (13.3%) Number (%) of patients
  Nausea, All causalities, All grades: 15 (50.0%) Number (%) of patients
  Neutropenia, All causalities, All grades: 5 (16.7%) Number (%) of patients
  Neutropenia, All causalities, G3 + G4: 2 (6.7%) Number (%) of patients
  Oedema Peripheral, All causalities, All grades: 8 (26.7%) Number (%) of patients
  Pruritus, All causalities, All grades: 11 (36.7%) Number (%) of patients
  Pruritus, All causalities, G3 + G4: 1 (3.3%) Number (%) of patients
  Rash, All causalities, All grades: 12 (40.0%) Number (%) of patients
  Rash, All causalities, G3 + G4: 3 (10.0%) Number (%) of patients
  Vomiting, All causalities, All grades: 10 (33.3%) Number (%) of patients
[1]; [3]
  Abdominal Pain Upper, Suspected, All grades: 7 (23.3%) Number (%) of patients
  Abdominal Pain, Suspected, All grades: 10 (33.3%) Number (%) of patients
  Abdominal Pain, Suspected, G3 + G4: 1 (3.3%) Number (%) of patients
  Anaemia, Suspected, All grades: 4 (13.3%) Number (%) of patients
  Anaemia, Suspected, G3 + G4: 1 (3.3%) Number (%) of patients
  Asthenia, Suspected, All grades: 25 (83.3%) Number (%) of patients
  Asthenia, Suspected, G3 + G4: 1 (3.3%) Number (%) of patients
  Diarrhoea, Suspected, All grades: 17 (56.7%) Number (%) of patients
  Diarrhoea, Suspected, G3 + G4: 1 (3.3%) Number (%) of patients
  Dry Skin, Suspected, All grades: 4 (13.3%) Number (%) of patients
  Erythema, Suspected, All grades: 5 (16.7%) Number (%) of patients
  Eye Oedema, Suspected, All grades: 14 (46.7%) Number (%) of patients
  Eye Oedema, Suspected, G3 + G4: 1 (3.3%) Number (%) of patients
  Eyelid Oedema, Suspected, All grades: 7 (23.3%) Number (%) of patients
  Lacrimation Increased, Suspected, All grades: 4 (13.3%) Number (%) of patients
  Mucosal Inflammation, Suspected, All grades: 5 (16.7%) Number (%) of patients
  Mucosal Inflammation, Suspected, G3 + G4: 1 (3.3%) Number (%) of patients
  Muscle Spasms, Suspected, All grades: 12 (40.0%) Number (%) of patients
  Myalgia, Suspected, All grades: 4 (13.3%) Number (%) of patients
  Nausea, Suspected, All grades: 14 (46.7%) Number (%) of patients
  Neutropenia, Suspected, All grades: 5 (16.7%) Number (%) of patients
  Neutropenia, Suspected, G3 + G4: 2 (6.7%) Number (%) of patients
  Oedema Peripheral, Suspected, All grades: 6 (20.0%) Number (%) of patients
  Pruritus, Suspected, All grades: 10 (33.3%) Number (%) of patients
  Pruritus, Suspected, G3 + G4: 1 (3.3%) Number (%) of patients
  Rash, Suspected, All grades: 12 (40.0%) Number (%) of patients
  Rash, Suspected, G3 + G4: 3 (10.0%) Number (%) of patients
  Vomiting, Suspected, All grades: 7 (23.3%) Number (%) of patients
[1]; human, in vivo
  cardiac side-effects: no cardiac side-effects have been observed
[1]; in 8/30 patients
  total number of serious adverse events (SAE): 14
[1]; six patients
  patients with dose reduced by 100 or 200 mg/day following grade 3-4 AEs: 20%
[1]; worsening of a concomitant psoriasis and anaemia
  number of treatment-related SAE: three
[2]
  % apoptosis (cells in apoptosis): More than 45%
Solubility; 0.1 M HCl
  solubility in 0.1 M HCl: freely soluble
Solubility; 0.1 M NaOH
  solubility in 0.1 M NaOH: practically insoluble
Solubility; dimethylsulfoxide
  solubility in dimethylsulfoxide: freely soluble
Solubility; ethanol
  solubility in ethanol: slightly soluble
Solubility; n-hexane
  solubility in n-hexane: practically insoluble
Solubility; propylene glycol
  solubility in propylene glycol: slightly soluble
Solubility; water
  solubility in water: soluble
